In patent publication US20050165068A1, “Compounds, in particularly of urea derivatives or esters of haloacetamidobenzoic acid and use thereof for the treatment of parasitic diseases” (priority 2002, published 2005):
In brackets after ≈: the same amount, converted by molar mass. Read-outs that look alike come from different tables or passages of the source.

Experiments:
[1] = tested on: promastigote phase of Leishmania; conditions: 96 hours of contact, MTT marker; values of FIG. 1 not given
mouse microphages = conditions: times less on mouse microphages than on the parasite
Experimental: (§3) A tetrazolium salt (MTT) has been used as marker. In the case of L. mexicana, the molecules were evaluated relative to the intracellular amastigote stage (macrophages of Balb/c), the stage encountered in patients.

L. major = test: in vivo anti-Leishmania activity, cutaneous model (L. major in Balb/c mice); conditions: MF 29 10 mg/kg intra-peritoneal once per day for 10 days, Glucantime subcutaneous, same scheme
Experimental: (§1) In promastigotes of L. major (2×106) or of L. infantum (10^7) in the stationary phase are inoculated respectively by the subcutaneous route in the rear right paw or by intravenous route in the caudal vein. […] Meglumine antimoniate (Glucantime-Speca™ Rhone-Poulenc, Paris, France) containing 85 mg of pentavalent antimony per ml is administered by subcutaneous route according to the same therapeutic scheme. The control group receives the solvent of MF 29 and of the saline solution at 0.9% by intra-peritoneal route.
(§2) For the cutaneous model, the efficacy of the treatment is evaluated by measuring the edema at the infected paw with the help of an electronic sliding foot (ref. 56371; Polylabo; Strasburg, France), and reported relative to the thickness of the counter-lateral paw. The mice are sacrificed […] after infection. A fragment of derma, of the spleen, of the liver and of the polyptic ganglion draining the lesion are set aside to determine the parasitic load in situ. As to the model of visceral leishmaniosis, the same protocol is carried out on the spleen and the liver. The parasitic load is expressed by the log10 of the number of parasites per gram of tissue.

[2] = tested on: MRC5 line (normal tissue of fetal lung); conditions: times less for MRC5 line than on the parasite
Experimental: as §3

L. infantum = test: in vivo anti-Leishmania activity, visceral model (L. infantum); set-up: species or system mice; conditions: L. infantum intravenous, MF 29 10 mg/kg intra-peritoneal once per day for 10 days, Glucantime subcutaneous
Experimental: as §1, §2

[3] = tested on: L. mexicana intracellular amastigote stage; test: activity on the intracellular amastigote stage of L. mexicana in macrophages of Balb/c; conditions: times greater than GLUCANTIME
Experimental: as §3

tubuline of beef brain = tested on: tubuline of beef brain
Experimental: The anti-microtubular activity of MF 29 is also compared to that of MF 191 and to that of the vinblastine on the assembly of the tubulines of beef brain.
Experiments carried out to measure the capacity of in vitro polymerization of the tubuline were carried out with the help of a spectrophotometer provided with a circulating bath system at 37° C. and an automatic well loader permitting simultaneous measurement of several tests. The optical density which increases with polymerization of the assembly of the tubulines of the brain according to Lebanski et al., 1973, that is induced with the promoter MAP2 is measured at 345 nm every thirty seconds.

[4] = tested on: Trypanosoma cruzi Peruvian strain
Experimental: The in vivo anti-Trypanosoma activity of MF 29 has also been studied. Mice were infected with Trypanosoma cruzi Peruvian strain by intravenous route. Four days post-infection, the mice are treated with MF 29 by intra-peritoneal route once per day in the amount of 10 mg/Kg for 10 days. The control group receives the solvent. The effectiveness of the treatment is evaluated by measuring parasitemia and followed by mortality.

[5] = tested on: promastigotes of L. mexicana; conditions: treatment for one hour at 5 μg/ml, sweeping electron microscope
Plasmodium falciparum = tested on: Plasmodium falciparum
Description: MF 29 has been evaluated in a test of inhibition of the proliferation of Plasmodium falciparum (mortal species) in an intra-erythrocytic model by measuring the incorporation of hypoxanthine.

For `CCOC(=O)c1ccccc1NC(=O)CCl` [GR 38], the “in vitro anti-Leishmania activity (CI50 of Table 1 / FIG. 1, described in words)” value [1] was “similar”.
`CCOC(=O)c1ccc(NC(=O)CCl)cc1` [GR 37, 4-chloroacetamido ethyl benzoate] was tested, and the “in vitro anti-Leishmania activity (CI50 of Table 1 / FIG. 1, described in words)” value [1] was “extraordinary activity” and the “cytotoxicity on mouse macrophages relative to the parasite” value (mouse microphages) was 1000 times.
`CCOC(=O)c1cccc(NC(=O)CCl)c1` [MF 29, 3-chloroacetamido ethyl benzoate] was tested, and the “reduction of the hepatic parasitic load” value (L. major) was 96%, the “reduction of the polyptic ganglion parasitic load” value (L. major) was 59% and the “reduction of the spleen parasitic load” value (L. major) was 97%. The “cytotoxicity for the MRC5 line relative to that obtained on the parasite” value [2] was 400 times, the “reduction of the parasitic load in the liver” value (L. infantum) was 25% and the “reduction of the parasitic load in the spleen” value (L. infantum) was 56%. For the same molecule, the “activity in the amastigote form relative to GLUCANTIME” value [3] was 300 times, the “inhibition of polymerization of tubuline of beef brain” value (tubuline of beef brain; 37° C., MAP2 promoter, FIG. 4C) was “weak inhibitor” and the “inhibition of polymerization of tubuline of beef brain at doubled concentration” value (tubuline of beef brain; doubled concentration of the drug, FIG. 4D) was “significant inhibition”. The mortality ([4]; 10 mg/Kg intra-peritoneal once per day for 10 days, FIG. 5) was “retardation in the curve of mortality”, the mortality ([4]; 20 mg/kg, preliminary results) was “greater reduction of mortality” and the “reduction of the parasitic load” value ([4]; 8th day, versus control group, 10 mg/Kg intra-peritoneal) was 70%. The “parasitemia (load)” value ([4]; 8th day, 10 mg/Kg intra-peritoneal once per day for 10 days from four days post-infection) was 200 trypomastigotes per 50 fields, the “parasitemia versus control group” value ([4]; 10th day, 10 mg/Kg intra-peritoneal) was “equivalent for the two groups” and the “in vitro anti-Leishmania activity (CI50 of Table 1 / FIG. 1, described in words)” value [1] was “high activity”. The “effect on the flagella” value [5] was “do not seem to be disturbed”, the “morphological changes of the cellular body” value [5] was “multiple pores” and the CI50 (Plasmodium falciparum; chloroquinine-sensitive strain (FCB1-Columbia)) was 0.1 µg/mL (≈ 0.414 µM). It also gave a CI50 (Plasmodium falciparum; strain (Nigerian strain) resistant to chloroquinine) of 0.1 µg/mL (≈ 0.414 µM).
For “meglumine antimoniate [Glucantime, reference compound]”, the “reduction of the polyptic ganglion parasitic load” value (L. major) was 44%, the “reduction of the parasitic load in the liver” value (L. infantum) was 30% and the “reduction of the parasitic load in the spleen” value (L. infantum) was 66%.
